This passage reports IC50 results from US12404249B2, “Heterocyclic derivatives and use thereof” (C&C RESEARCH LABORATORIES, priority 2018, dated 2025).

Experiment [1] relates to prostate cancer cell line (LNCap). The experiment in a line: Cell growth inhibition assay (Celltiter Glo). The experiment is classed as cell-based. Conditions: Homo sapiens, LNCap cells, 120 hours incubation. In general terms: Cellular ATP, detected with luciferase, serves as a proxy for viable cell number.
The target in experiment [2] is T1, STAT3 (Homo sapiens, UniProt P40763).
T1 construct: endogenous in cells; host or cells: LNCaP (human prostate cancer) stably carrying pSTAT3-TA-luc reporter plasmid
Description: STAT3 activation inhibition assay (reporter gene assay, LNcaP stable cell line, IL-6 stimulated). It is filed as cell-based. Conditions: LNcaP stable cell line [plasmid STAT3-TA-luc], IL-6 10 ng/mL, 48 hours, luciferase activity; read-out: IC50 (μM) pSTAT3.

A value given as a limit tells only on which side of the number the result lay.

T1 sequence (P40763 whole entry): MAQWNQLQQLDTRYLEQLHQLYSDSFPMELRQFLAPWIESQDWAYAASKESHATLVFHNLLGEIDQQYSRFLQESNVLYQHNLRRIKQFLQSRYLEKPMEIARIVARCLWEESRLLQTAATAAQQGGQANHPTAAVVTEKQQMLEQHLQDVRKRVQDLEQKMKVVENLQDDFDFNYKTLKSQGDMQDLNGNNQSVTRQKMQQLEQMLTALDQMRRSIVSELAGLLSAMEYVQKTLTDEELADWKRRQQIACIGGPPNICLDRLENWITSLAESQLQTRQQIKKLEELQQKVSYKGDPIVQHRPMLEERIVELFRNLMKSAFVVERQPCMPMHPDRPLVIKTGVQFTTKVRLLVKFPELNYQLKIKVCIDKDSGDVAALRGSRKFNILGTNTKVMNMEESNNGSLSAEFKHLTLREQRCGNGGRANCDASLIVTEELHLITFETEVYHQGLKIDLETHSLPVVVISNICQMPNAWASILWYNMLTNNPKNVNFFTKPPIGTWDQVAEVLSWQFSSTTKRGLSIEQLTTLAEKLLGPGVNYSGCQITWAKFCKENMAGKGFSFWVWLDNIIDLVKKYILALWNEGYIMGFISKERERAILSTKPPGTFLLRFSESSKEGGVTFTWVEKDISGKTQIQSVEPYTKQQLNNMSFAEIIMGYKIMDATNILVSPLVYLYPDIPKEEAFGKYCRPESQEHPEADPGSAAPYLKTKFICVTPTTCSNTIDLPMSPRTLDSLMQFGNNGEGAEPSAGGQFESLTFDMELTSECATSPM

Broadly, the IC50 is the midpoint of a concentration-inhibition curve. As for `O=C(O)c1ccc2nc(Cl)cc(NCCc3ccc([N+](=O)[O-])cc3)c2c1` [Example 40, 2-chloro-4-((4-nitrophenethyl)amino)quinolin-6-carboxylic acid], the IC50 in experiment [1] and in experiment [2] was more than 50 µM throughout.

Take `CS(=O)(=O)Nc1ccc(CCNc2cc(C(F)(F)F)nc3ccccc23)cc1` [Example 52, N-(4-(2-((2-(trifluoromethyl)quinolin-4-yl)amino)ethyl)phenyl)methanesulfonamide]: the results for the concentration for half-maximal inhibition (IC50) in experiment [1] and in experiment [2] were 6.6 µM and 3.1 µM, respectively.

Take `CS(=O)(=O)Nc1ccc(CCNc2nccc3occc23)cc1` [Example 73, N-(4-(2-(furo[3,2-c]pyridin-4-ylamino)ethyl)phenyl)methanesulfonamide]: the figures for the half-maximal inhibitory concentration (IC50) in experiment [1] and in experiment [2] were 33 µM and 35.9 µM, respectively.

For `O=[N+]([O-])c1ccc(CCNc2cc(Cl)nc3cc(F)ccc23)cc1` [Example 30, 2-chloro-7-fluoro-N-(4-nitrophenethyl)quinolin-4-amine], the IC50 in experiment [1] is 7 µM; in experiment [2] it was 2.2 µM.

Turning to `CS(=O)(=O)Nc1ccc(CCNc2cc(Cl)nc3cccc(OC(F)(F)F)c23)cc1` [Example 26, N-(4-(2-((2-chloro-5-(trifluoromethoxy)quinolin-4-yl)amino)ethyl)phenyl)methanesulfonamide], the IC50 worked out at 0.23 µM in experiment [1] and 0.15 µM in experiment [2].
